Measurements from patent US9566240B2, “Compositions for multiphase, staggered, or sustained release of an active substance” (CLABBER GIRL CORPORATION, priority 2014, dated 2017).

Tests used:
[1] = system: composited rumen contents; assay: In vitro ruminal incubation: ruminal pH; details: over a 24 hour feeding cycle
Protocol: Each of the products was tested using in vitro ruminal incubation to determine the product's influence on ruminal pH, volatile fatty acid production in relation to changes in ruminal pH, and the associative effects of ruminal pH and volatile fatty acid on dry matter disappearance, starch disappearance, and neutral detergent fiber disappearance. Incubation solution containing water, composited rumen contents, and Van Soest buffer was placed in 1 L-incubation vessels (1 L oval deli cup with lid and Bunsen valve). Simulated feeding bags were obtained by placing 3 g of ground (Wiley Mill, 8 mm screen) total meal rations (10% alfalfa hay, 35% corn silage, 50% corn grain, and 5% vitamin/minerals) into 5 cm×10 cm bags with a pore size of 40 microns. […] Ruminal pH was measured during each incubation time. At zero hours and twelve hours, pH was also recorded before and after the simulated feeding. […] Dry matter disappearance, starch disappearance, and neutral detergent fiber disappearance were measured by removing replicate bags at the same hours the volatile fatty acid aliquots were taken, drying them in a forced-air oven at 60° C. to a constant weight, and storing them for future analysis.

[2] = system: composited rumen contents; assay: In vitro ruminal incubation: volatile fatty acid production
Protocol: Each of the products was tested using in vitro ruminal incubation to determine the product's influence on ruminal pH, volatile fatty acid production in relation to changes in ruminal pH, and the associative effects of ruminal pH and volatile fatty acid on dry matter disappearance, starch disappearance, and neutral detergent fiber disappearance. Incubation solution containing water, composited rumen contents, and Van Soest buffer was placed in 1 L-incubation vessels (1 L oval deli cup with lid and Bunsen valve). Simulated feeding bags were obtained by placing 3 g of ground (Wiley Mill, 8 mm screen) total meal rations (10% alfalfa hay, 35% corn silage, 50% corn grain, and 5% vitamin/minerals) into 5 cm×10 cm bags with a pore size of 40 microns. Product 1 was added to each of eight replicate feeding bags in an amount at 0.2273 g/L. Product 2 was added to another set of eight replicate bags in an amount of 0.3704 g/L. Product 3 was added to another set of eight replicate bags in an amount of 0.5710 g/L. Control was added to another set of eight replicate bags in an amount of 0.1 g/L. A fifth set of eight replicate bags contained just the 3g of ground total meal rations to serve as a “Blank” control. To simulate twice-a-day-feeding, four replicates from each set of replicates were added to the incubation vessels at zero hours (0 H), and four more were added at twelve hours (12 H). The incubation vessels were placed into a temperature controlled, air jacketed, anaerobic incubator (39° C., and 20% carbon dioxide) for the duration of their assigned incubation time. Ruminal pH was measured during each incubation time. At zero hours and twelve hours, pH was also recorded before and after the simulated feeding. […] Dry matter disappearance, starch disappearance, and neutral detergent fiber disappearance were measured by removing replicate bags at the same hours the volatile fatty acid aliquots were taken, drying them in a forced-air oven at 60° C. to a constant weight, and storing them for future analysis. […] The first feeding was monitored for 12 hours (2, 6, and 12). Then the second feeding was monitored at 14 and 18 hours which corresponded to the 2 and 6 hours post-feeding.

[3] = system: composited rumen contents; assay: In vitro ruminal incubation: dry matter, starch and neutral detergent fiber disappearance
Protocol: Each of the products was tested using in vitro ruminal incubation to determine the product's influence on ruminal pH, volatile fatty acid production in relation to changes in ruminal pH, and the associative effects of ruminal pH and volatile fatty acid on dry matter disappearance, starch disappearance, and neutral detergent fiber disappearance.
Incubation solution containing water, composited rumen contents, and Van Soest buffer was placed in 1 L-incubation vessels (1 L oval deli cup with lid and Bunsen valve). Simulated feeding bags were obtained by placing 3 g of ground (Wiley Mill, 8 mm screen) total meal rations (10% alfalfa hay, 35% corn silage, 50% corn grain, and 5% vitamin/minerals) into 5 cm×10 cm bags with a pore size of 40 microns. Product 1 was added to each of eight replicate feeding bags in an amount at 0.2273 g/L. Product 2 was added to another set of eight replicate bags in an amount of 0.3704 g/L. Product 3 was added to another set of eight replicate bags in an amount of 0.5710 g/L. Control was added to another set of eight replicate bags in an amount of 0.1 g/L. A fifth set of eight replicate bags contained just the 3g of ground total meal rations to serve as a “Blank” control.
To simulate twice-a-day-feeding, four replicates from each set of replicates were added to the incubation vessels at zero hours (0 H), and four more were added at twelve hours (12 H). The incubation vessels were placed into a temperature controlled, air jacketed, anaerobic incubator (39° C., and 20% carbon dioxide) for the duration of their assigned incubation time.
Ruminal pH was measured during each incubation time. At zero hours and twelve hours, pH was also recorded before and after the simulated feeding. Volatile fatty acid production was measured by taking 50 ml aliquots of the supernatant of each incubation vessel at 0, 2, 6, 12, 14, 18, and 24 hours, acidifying the aliquot with 5 ml of 50% HCl, and freezing it for future analysis. Dry matter disappearance, starch disappearance, and neutral detergent fiber disappearance were measured by removing replicate bags at the same hours the volatile fatty acid aliquots were taken, drying them in a forced-air oven at 60° C. to a constant weight, and storing them for future analysis.
Dry matter, starch, and neutral detergent fiber concentrations were measured at 2, 4, 6, 10, 12, 16, 18, and 22 hours of incubation. The measurements for starch disappearance and neutral detergent fiber disappearance were made at 2, 6, 16, and 22 hours of incubation. The early times were selected to monitor the faster degradation of starch, and the later times to monitor the slower degradation of neutral detergent fiber. […]

[4] = in vitro incubation, at the two peaks of 2 and 14 hours
[5] = in vitro incubation, overall values at 18 hours

O=C([O-])O.[Na+] [Control, sodium bicarbonate]
buffering of rumen pH [1]: only a “flash” neutralization that was soon dissipated | total volatile fatty acids concentration ([2]; at 18 H, after the second feeding (12 H), FIG. 4): higher concentration at 18 H compared to that of Product 2 | ratio of even- to odd-numbered carbon chain VFAs, overall assessment ([2]; from Table 3, high total VFA plus high propionic acid without decrease in acetic acid): superior to the other treatments | A:P Peaks (acetic acid to propionic acid ratio at peak concentrations) [2, 4]: 8.30 | AB:P Peaks (sum of acetic and butyric acid to propionic acid ratio at peak concentrations) [2, 4]: 9.39 | A:P (acetic acid to propionic acid ratio) [2, 5]: 11.61 | AB:P (sum of acetic acid and butyric acid to propionic acid ratio) [2, 5]: 12.50 | dry matter disappearance ([3]; first 11 hours of the feeding cycle): little dry matter disappearance | dry matter disappearance ([3]; in vitro incubations, FIG. 8): best results | starch disappearance ([3]; in vitro incubations, FIG. 9): best results | neutral detergent fiber disappearance ([3]; in vitro incubations, FIG. 10): higher neutral detergent fiber disappearance over Products 1, 2, and 3, and Blank
